Laboratory results taken from patent publication US10385019B2, “Inhibitors of EGFR and methods of use thereof” (Dana-Farber Cancer Institute, Inc., priority 2015, dated 2019).

Target: EGFR T790M/L858R Ba/F3 cell line (Homo sapiens, UniProt P00533, T790M/L858R, cells depend on it)
Experiment: Ba/F3 cell proliferation model
Format: cell-based, murine
Settings: combined with cetuximab (% cetuximab, 1.0 μM drug concentration with 1.0 μg/mL cetuximab)
Procedure, shortened: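 Murine Ba/F3 cells made IL-3-independent by retroviral EGFR L858R/T790M, selected in puromycin (2 μg/ml) and kept in RPMI 1640 with 10% FBS. Cells were exposed to serially diluted compound for 72 h, with growth read by MTS assay in six wells per point and ≥3 repeats. Sigmoidal dose-response non-linear regression gave the values.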

Sequence of EGFR T790M/L858R Ba/F3 cell line (P00533 whole entry T790M/L858R): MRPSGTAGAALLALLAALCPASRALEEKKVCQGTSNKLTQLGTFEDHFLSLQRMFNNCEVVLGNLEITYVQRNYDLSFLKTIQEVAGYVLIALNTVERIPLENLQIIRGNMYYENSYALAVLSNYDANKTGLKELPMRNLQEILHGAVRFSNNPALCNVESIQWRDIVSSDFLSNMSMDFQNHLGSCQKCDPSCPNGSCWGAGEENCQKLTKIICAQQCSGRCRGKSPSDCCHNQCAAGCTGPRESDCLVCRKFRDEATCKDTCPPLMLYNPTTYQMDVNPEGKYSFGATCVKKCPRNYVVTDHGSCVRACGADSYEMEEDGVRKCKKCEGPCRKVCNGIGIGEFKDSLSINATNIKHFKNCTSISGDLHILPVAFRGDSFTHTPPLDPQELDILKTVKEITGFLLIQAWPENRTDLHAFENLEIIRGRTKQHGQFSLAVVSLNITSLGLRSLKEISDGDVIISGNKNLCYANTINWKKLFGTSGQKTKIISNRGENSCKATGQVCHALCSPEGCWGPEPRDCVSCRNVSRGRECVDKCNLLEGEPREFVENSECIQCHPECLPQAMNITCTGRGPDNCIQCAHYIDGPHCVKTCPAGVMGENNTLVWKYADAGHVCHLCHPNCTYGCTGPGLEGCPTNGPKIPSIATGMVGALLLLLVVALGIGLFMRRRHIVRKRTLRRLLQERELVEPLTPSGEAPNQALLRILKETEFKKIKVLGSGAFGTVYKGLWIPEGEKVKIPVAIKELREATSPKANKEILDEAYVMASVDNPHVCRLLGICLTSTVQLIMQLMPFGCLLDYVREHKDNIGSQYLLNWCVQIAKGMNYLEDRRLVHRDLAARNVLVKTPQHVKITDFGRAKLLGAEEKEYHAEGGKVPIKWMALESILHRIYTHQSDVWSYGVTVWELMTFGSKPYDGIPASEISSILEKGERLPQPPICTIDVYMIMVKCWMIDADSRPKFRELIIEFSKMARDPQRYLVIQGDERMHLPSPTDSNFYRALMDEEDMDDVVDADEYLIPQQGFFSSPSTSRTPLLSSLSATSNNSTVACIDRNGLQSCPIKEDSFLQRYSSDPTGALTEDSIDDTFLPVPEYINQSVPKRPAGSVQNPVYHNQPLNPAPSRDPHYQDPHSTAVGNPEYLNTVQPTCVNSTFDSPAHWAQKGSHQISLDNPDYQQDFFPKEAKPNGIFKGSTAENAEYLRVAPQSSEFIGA

Structure (SMILES)	Activity (% inhibition)
O=C(Nc1cc(Br)ccn1)[C@@H](c1ccccc1)N1Cc2ccccc2C1=O [Compound I-28, (R)-N-(4-bromopyridin-2-yl)-2-(1-oxoisoindolin-2-yl)-2-phenylacetamide]	A (a % inhibition of about 75%)
O=C(NCCCN1CCOCC1)c1ccc(-c2ccc3c(c2)C(=O)N([C@@H](C(=O)Nc2nccs2)c2ccccc2)C3)cc1 [Compound I-84, (R)-N-(3-morpholinopropyl)-4-(3-oxo-2-(2-oxo-1-phenyl-2-(thiazol-2-ylamino)ethyl)isoindolin-5-yl)benzamide]	D (a % inhibition of between about 0% to about 25%)
O=C(Nc1nccs1)[C@@H](c1ccccc1)N1Cc2cc(Nc3cccc(CN4CCCC4)c3)ccc2C1=O [Compound I-95, (R)-2-(1-oxo-5-((3-(pyrrolidin-1-ylmethyl)phenyl)amino)isoindolin-2-yl)-2-phenyl-N-(thiazol-2-yl)acetamide]	B (a % inhibition of between about 50% to about 75%)
CN1CCN(C(=O)c2csc(NC(=O)[C@@H](c3ccccc3)N3Cc4ccccc4C3=O)n2)CC1 [Compound I-25, (R)-N-(4-(4-methylpiperazine-1-carbonyl)thiazol-2-yl)-2-(1-oxoisoindolin-2-yl)-2-phenylacetamide]	A (a % inhibition of about 75%)
O=C(Nc1nccs1)[C@@H](c1ccccc1)N1Cc2ccc(-c3cccc(C(=O)N4CCOCC4)c3)cc2C1=O [Compound I-92, (R)-2-(6-(3-(morpholine-4-carbonyl)phenyl)-1-oxoisoindolin-2-yl)-2-phenyl-N-(thiazol-2-yl)acetamide]	C (a % inhibition of between about 25% to about 50%)
Nc1cccc([C@@H](C(=O)Nc2nccs2)N2Cc3ccccc3C2=O)c1 [Compound I-13, (S)-2-(3-aminophenyl)-2-(1-oxoisoindolin-2-yl)-N-(thiazol-2-yl)acetamide]	A (a % inhibition of about 75%)
O=C(Nc1ncc[nH]1)[C@@H](c1ccccc1)N1Cc2ccccc2C1=O [Compound I-34, (R)-N-(1H-imidazol-2-yl)-2-(1-oxoisoindolin-2-yl)-2-phenylacetamide]	A (a % inhibition of about 75%)
CN(C)CCCCNC(=O)c1ccc(-c2ccc3c(c2)C(=O)N([C@@H](C(=O)Nc2nccs2)c2ccccc2)C3)cc1 [Compound I-82, (R)-N-(4-(dimethylamino)butyl)-4-(3-oxo-2-(2-oxo-1-phenyl-2-(thiazol-2-ylamino)ethyl)isoindolin-5-yl)benzamide]	C (a % inhibition of between about 25% to about 50%)
O=C(Nc1nccs1)[C@@H](c1ccccc1)N1Cc2ccc(-c3cn[nH]c3)cc2C1=O [Compound I-64, (R)-2-(1-oxo-6-(1H-pyrazol-4-yl)isoindolin-2-yl)-2-phenyl-N-(thiazol-2-yl)acetamide]	B (a % inhibition of between about 50% to about 75%)
O=C(Nc1cc(Br)ccn1)[C@H](c1ccccc1)N1Cc2ccccc2C1=O [Compound I-29, (S)-N-(4-bromopyridin-2-yl)-2-(1-oxoisoindolin-2-yl)-2-phenylacetamide]	A (a % inhibition of about 75%)
N#Cc1ccc(-c2ccc3c(c2)C(=O)N([C@H](C(=O)Nc2nccs2)c2ccccc2)C3)cc1F [Compound I-114, (S)-2-(6-(4-cyano-3-fluorophenyl)-1-oxoisoindolin-2-yl)-2-phenyl-N-(thiazol-2-yl)acetamide]	B (a % inhibition of between about 50% to about 75%)
CN(C)CCCCNC(=O)c1csc(NC(=O)[C@@H](c2ccccc2)N2Cc3ccccc3C2=O)n1 [Compound I-15, (R)-N-(4-(dimethylamino)butyl)-2-(2-(1-oxoisoindolin-2-yl)-2-phenylacetamido)thiazole-4-carboxamide]	A (a % inhibition of about 75%)
O=C(Nc1nccs1)[C@@H](c1ccccc1)N1Cc2ccc(Nc3cccc(F)c3)cc2C1=O [Compound I-99, (R)-2-(6-((3-fluorophenyl)amino)-1-oxoisoindolin-2-yl)-2-phenyl-N-(thiazol-2-yl)acetamide]	C (a % inhibition of between about 25% to about 50%)
NC(=O)c1csc(NC(=O)[C@@H](c2ccccc2)N2Cc3ccccc3C2=O)n1 [Compound I-17, (R)-2-(2-(1-oxoisoindolin-2-yl)-2-phenylacetamido)thiazole-4-carboxamide]	A (a % inhibition of about 75%)
O=C(Nc1ncc[nH]1)[C@@H](c1ccccc1)N1Cc2ccc(-c3ccc4[nH]ccc4c3)cc2C1=O [Compound I-133, (R)-2-(6-(1H-indol-5-yl)-1-oxoisoindolin-2-yl)-N-(1H-imidazol-2-yl)-2-phenylacetamide]	D (a % inhibition of between about 0% to about 25%)
O=C(Nc1nccs1)[C@@H](c1ccccc1)N1Cc2ccc(-c3ccc(F)cc3)cc2C1=O [Compound I-77, (R)-2-(6-(4-fluorophenyl)-1-oxoisoindolin-2-yl)-2-phenyl-N-(thiazol-2-yl)acetamide]	B (a % inhibition of between about 50% to about 75%)
O=C(NCCN1CCOCC1)c1csc(NC(=O)[C@@H](c2ccccc2)N2Cc3ccccc3C2=O)n1 [Compound I-10, (R)-N-(2-morpholinoethyl)-2-(2-(1-oxoisoindolin-2-yl)-2-phenylacetamido)thiazole-4-carboxamide]	A (a % inhibition of about 75%)
O=C(Nc1nccs1)[C@@H](c1ccccc1)N1Cc2ccc(-c3cccs3)cc2C1=O [Compound I-46, (R)-2-(1-oxo-6-(thiophen-2-yl)isoindolin-2-yl)-2-phenyl-N-(thiazol-2-yl)acetamide]	B (a % inhibition of between about 50% to about 75%)
COC(=O)c1cc(Br)ccc1N[C@@H](C(=O)Nc1nccs1)c1ccccc1 [Compound I-106, methyl (R)-5-bromo-2-((2-oxo-1-phenyl-2-(thiazol-2-ylamino)ethyl)amino)benzoate]	B (a % inhibition of between about 50% to about 75%)
O=C(Nc1nccs1)[C@@H](c1ccccc1)N1Cc2ccc(-c3cccc(F)c3)cc2C1=O [Compound I-76, (R)-2-(6-(3-fluorophenyl)-1-oxoisoindolin-2-yl)-2-phenyl-N-(thiazol-2-yl)acetamide]	B (a % inhibition of between about 50% to about 75%)
O=C(Nc1ccncc1)[C@@H](c1ccccc1)N1Cc2ccccc2C1=O [Compound I-8, (R)-2-(1-oxoisoindolin-2-yl)-2-phenyl-N-(pyridin-4-yl) acetamide]	A (a % inhibition of about 75%)

Second part, the molecule after the results:

Activity (% inhibition)	Structure (SMILES)
A (a % inhibition of about 75%)	O=C(NCC(O)CO)c1cc(Br)ccc1N[C@@H](C(=O)Nc1nccs1)c1ccccc1 (stereo partly drawn) [Compound I-111, 5-bromo-N-(2,3-dihydroxypropyl)-2-(((R)-2-oxo-1-phenyl-2-(thiazol-2-ylamino)ethyl)amino)benzamide]
A (a % inhibition of about 75%)	O=C(Nc1nc(CCCN2CCOCC2)cs1)[C@@H](c1ccccc1)N1Cc2ccccc2C1=O [Compound I-43, (R)-N-(4-(3-morpholinopropyl)thiazol-2-yl)-2-(1-oxoisoindolin-2-yl)-2-phenylacetamide]
A (a % inhibition of about 75%)	O=C(Nc1nccs1)[C@@H](Cc1ccccc1)N1Cc2ccccc2C1=O [Compound I-39, (R)-2-(1-oxoisoindolin-2-yl)-3-phenyl-N-(thiazol-2-yl)propanamide]
A (a % inhibition of about 75%)	O=C(Nc1cnsc1)[C@@H](c1ccccc1)N1Cc2ccc(-c3ccc4[nH]ccc4c3)cc2C1=O [Compound I-128, (R)-2-(6-(1H-indol-5-yl)-1-oxoisoindolin-2-yl)-N-(isothiazol-4-yl)-2-phenylacetamide]
A (a % inhibition of about 75%)	Cc1csc(NC(=O)[C@@H](c2ccccc2)N2Cc3ccc(-c4ccc5[nH]ccc5c4)cc3C2=O)n1 [Compound I-131, (R)-2-(6-(1H-indol-5-yl)-1-oxoisoindolin-2-yl)-N-(4-methylthiazol-2-yl)-2-phenylacetamide]
A (a % inhibition of about 75%)	C[C@H](C(=O)Nc1nccs1)N1Cc2ccc(-c3ccc4[nH]ccc4c3)cc2C1=O [Compound I-116, (R)-2-(6-(1H-indol-5-yl)-1-oxoisoindolin-2-yl)-N-(thiazol-2-yl)propanamide]
A (a % inhibition of about 75%)	O=C(Nc1ccccc1Cl)[C@@H](c1ccccc1)N1Cc2ccccc2C1=O [Compound I-52, (R)-N-(2-chlorophenyl)-2-(1-oxoisoindolin-2-yl)-2-phenylacetamide]
A (a % inhibition of about 75%)	O=C(O)c1ccc(-c2ccc3c(c2)C(=O)N([C@@H](C(=O)Nc2nccs2)c2ccccc2)C3)cc1 [Compound I-78, (R)-4-(3-oxo-2-(2-oxo-1-phenyl-2-(thiazol-2-ylamino)ethyl)isoindolin-5-yl)benzoic acid]
A (a % inhibition of about 75%)	Nc1cccc([C@H](C(=O)Nc2nccs2)N2Cc3ccccc3C2=O)c1 [Compound I-38, (R)-2-(3-aminophenyl)-2-(1-oxoisoindolin-2-yl)-N-(thiazol-2-yl)acetamide]
A (a % inhibition of about 75%)	O=C(Nc1nncs1)[C@@H](c1ccccc1)N1Cc2ccc(-c3ccc4[nH]ccc4c3)cc2C1=O [Compound I-127, (R)-2-(6-(1H-indol-5-yl)-1-oxoisoindolin-2-yl)-2-phenyl-N-(1,3,4-thiadiazol-2-yl)acetamide]
A (a % inhibition of about 75%)	O=C(NCc1ccccc1)[C@@H](c1ccccc1)N1Cc2ccccc2C1=O [Compound I-87, (R)-N-benzyl-2-(1-oxoisoindolin-2-yl)-2-phenylacetamide]
A (a % inhibition of about 75%)	O=C(Nc1ncc(Br)s1)[C@H](Cc1ccccc1)N1Cc2ccccc2C1=O [Compound I-49, (S)-N-(5-bromothiazol-2-yl)-2-(1-oxoisoindolin-2-yl)-3-phenylpropanamide]
